# From patent US8309553B2, “Anhydrous crystal form of ovrepitant maleate” (Glaxo Group Limited, priority 2008, dated 2012)
# What was measured:
# [1] = stability of the crystalline form (statement only, no method described); assay type: physicochemical
# [2] = hygroscopicity of the crystalline form (statement only, no method described); assay type: physicochemical; details: solid form
structure (smiles),measurement,setting,value
"Cc1cc(F)ccc1[C@H]1C[C@@H](N2CCN3C(=O)CC[C@H]3C2)CCN1C(=O)N(C)[C@H](C)c1cc(C(F)(F)F)cc(C(F)(F)F)c1.O=C(O)/C=C\C(=O)O [Form 1, (2R,4S)—N-{(1R)-1-[3,5-bis(trifluoromethyl)phenyl]ethyl}-2-(4-fluoro-2-methylphenyl)-N-methyl-4-[(8aS)-6-oxohexahydropyrrolo[1,2-a]pyrazin-2(1H)-yl]-1-piperidinecarboxamide maleate]",thermodynamic stability relative to Form 2,[1]; compared with Form 2 orvepitant maleate,thermodynamically more stable
same,stability of the crystalline form,[1]; solid form,particularly stable
same,hygroscopicity,[2],essentially non hygroscopic
